Usually IC50 stands for the concentration that gives 50% inhibition.

The assay concerns the target recombinant DYRK1A kinase (Homo sapiens (Human), UniProt Q13627). The assay can be described thus: DYRK1A kinase assay (Ser/Thr 18 peptide Z-lyte FRET assay). The settings on record: DYRK1A 0.25 μg/mL, ATP 15 μM, Ser/Thr peptide 18 4 μM; one hour at room temperature; 11-point dose-response, duplicate. Type of assay: biochemical. As to the method: Representative compounds were screened using the assay procedure for DYRK1A kinase activity as described below.
Each compound was dissolved in DMSO as a 10 mM stock and used to prepare compound source plates.
This is a non-radioactive assay using fluorescence resonance energy transfer (FRET) between coumarin and fluorescein to detect kinase activity which is represented as a ratio of coumarin emission/fluorescein emission.
The mixture was allowed to incubate with the representative compounds for one hour at room temperature. All reactions were performed in duplicate. Unphosphorylated (“0% Control”) and phosphorylated (“100% control”) forms of Ser/Thr 18 served as control reactions. Additionally, an 11-point dose-response curve of Staurosporine (1 uM top) was run to serve as a positive compound control.
After incubation, Development Reagent A was diluted in Development Buffer then added to the reaction and allowed to further incubate for one hour at room temperature.
Dose-response curves were generated, and inhibitory concentration (IC50) values were calculated using non-linear regression curve fit in the Dotmatics' Studies Software (Bishops Stortford, UK).
On to `CNc1nc(N[C@@H]2CCNCC2(F)F)nn2ccc(-c3ccn4nccc4n3)c12` [Compound 339, (R)—N^2-(3,3-Difluoropiperidin-4-yl)-N^4-methyl-5-(pyrazolo[1,5-a]pyrimidin-5-yl)pyrrolo[2,1-f][1,2,4]triazine-2,4-diamine], for which the IC50 turned out to be 2.2 nM.
Regarding `CNc1nc(N[C@@H]2CCN(C3COC3)CC2(F)F)nn2ccc(-c3ccc4ncn(CC(F)F)c4n3)c12` [Compound 351, (R)—N^2-(3,3-Difluoro-1-(oxetan-3-yl)piperidin-4-yl)-5-(3-(2,2-difluoroethyl)-3H-imidazo[4,5-b]pyridin-5-yl)-N^4-methylpyrrolo[2,1-f][1,2,4]triazine-2,4-diamine], the IC50 is 365 nM.
With `CNc1nc(N[C@H]2C[C@H](C(C)(C)O)C2)nn2ccc(-c3ccc4nc(C)n(CC(F)F)c4n3)c12` [Compound 355, 2-(trans-3-((5-(3-(2,2-Difluoroethyl)-2-methyl-3H-imidazo[4,5-b]pyridin-5-yl)-4-(methylamino)pyrrolo[2,1-f][1,2,4]triazin-2-yl)amino)cyclobutyl)propan-2-ol], the IC50 was 4.2 nM.
Next, `CNc1nc(N[C@H]2CN(C)CC2(F)F)nn2ccc(-c3ccc4nc(C)n(CC(F)F)c4n3)c12` [Compound 363, (S)—N^2-(4,4-Difluoro-1-methylpyrrolidin-3-yl)-5-(3-(2,2-difluoroethyl)-2-methyl-3H-imidazo[4,5-b]pyridin-5-yl)-N^4-methylpyrrolo[2,1-f][1,2,4]triazine-2,4-diamine]: 2.1 nM; `CNc1nc(N[C@@H]2CN(C)CC2(F)F)nn2ccc(-c3ccc4nc(C)n(CC(F)F)c4n3)c12` [Compound 364, (R)—N^2-(4,4-Difluoro-1-methylpyrrolidin-3-yl)-5-(3-(2,2-difluoroethyl)-2-methyl-3H-imidazo[4,5-b]pyridin-5-yl)-N^4-methylpyrrolo[2,1-f][1,2,4]triazine-2,4-diamine]: 0.6 nM.
For the compound `CCN1C[C@H](Nc2nc(NC)c3c(-c4ccc5nc(C)n(CC(F)F)c5n4)ccn3n2)C(F)(F)C1` [Compound 365, (S)-5-(3-(2,2-Difluoroethyl)-2-methyl-3H-imidazo[4,5-b]pyridin-5-yl)-N^2-(1-ethyl-4,4-difluoropyrrolidin-3-yl)-N^4-methylpyrrolo[2,1-f][1,2,4]triazine-2,4-diamine], the IC50 was found to be 6.3 nM.
For `CCN1C[C@@H](Nc2nc(NC)c3c(-c4ccc5nc(C)n(CC(F)F)c5n4)ccn3n2)C(F)(F)C1` [Compound 366, (R)-5-(3-(2,2-Difluoroethyl)-2-methyl-3H-imidazo[4,5-b]pyridin-5-yl)-N^2-(1-ethyl-4,4-difluoropyrrolidin-3-yl)-N^4-methylpyrrolo[2,1-f][1,2,4]triazine-2,4-diamine], the IC50 worked out at 1.4 nM.
`CNc1nc(N[C@H]2CN(C3COC3)CC2(F)F)nn2ccc(-c3ccc4nc(C)n(CC(F)F)c4n3)c12` [Compound 367, (S)—N^2-(4,4-difluoro-1-(oxetan-3-yl)pyrrolidin-3-yl)-5-(3-(2,2-difluoroethyl)-2-methyl-3H-imidazo[4,5-b]pyridin-5-yl)-N^4-methylpyrrolo[2,1-f][1,2,4]triazine-2,4-diamine]: the IC50 turned out to be 6.4 nM.
For `CNc1nc(N[C@@H]2CN(C3COC3)CC2(F)F)nn2ccc(-c3ccc4nc(C)n(CC(F)F)c4n3)c12` [Compound 368, (R)—N^2-(4,4-Difluoro-1-(oxetan-3-yl)pyrrolidin-3-yl)-5-(3-(2,2-difluoroethyl)-2-methyl-3H-imidazo[4,5-b]pyridin-5-yl)-N^4-methylpyrrolo[2,1-f][1,2,4]triazine-2,4-diamine], the IC50 was found to be 1.2 nM.
The figure for `CNc1nc(NC2CCN(CCF)CC2)nn2ccc(-c3ccc4nc(C)n(CC(F)F)c4n3)c12` [Compound 369, 5-(3-(2,2-Difluoroethyl)-2-methyl-3H-imidazo[4,5-b]pyridin-5-yl)-N^2-(1-(2-fluoroethyl)piperidin-4-yl)-N^4-methylpyrrolo[2,1-f][1,2,4]triazine-2,4-diamine] is 2.9 nM; for `CNc1nc(NC2CCN(CC(F)(F)F)CC2)nn2ccc(-c3ccc4nc(C)n(CC(F)F)c4n3)c12` [Compound 370, 5-(3-(2,2-Difluoroethyl)-2-methyl-3H-imidazo[4,5-b]pyridin-5-yl)-N^4-methyl-N^2-(1-(2,2,2-trifluoroethyl)piperidin-4-yl)pyrrolo[2,1-f][1,2,4]triazine-2,4-diamine] it is 15.5 nM; for `CNc1nc(NC2CCN(C3CC(F)(F)C3)CC2)nn2ccc(-c3ccc4nc(C)n(CC(F)F)c4n3)c12` [Compound 371, N^2-(1-(3,3-Difluorocyclobutyl)piperidin-4-yl)-5-(3-(2,2-difluoroethyl)-2-methyl-3H-imidazo[4,5-b]pyridin-5-yl)-N^4-methylpyrrolo[2,1-f][1,2,4]triazine-2,4-diamine] it is 2.2 nM.
`CCN1CC[C@@H](Nc2nc(NC)c3c(-c4ccc5nc(C)n(CC(F)F)c5n4)ccn3n2)[C@@H](F)C1` [Compound 372, 5-(3-(2,2-Difluoroethyl)-2-methyl-3H-imidazo[4,5-b]pyridin-5-yl)-N^2-((3S,4R)-1-ethyl-3-fluoropiperidin-4-yl)-N^4-methylpyrrolo[2,1-f][1,2,4]triazine-2,4-diamine]: the IC50 is 5 nM.
In the case of `CCN1CC[C@H](Nc2nc(NC)c3c(-c4ccc5nc(C)n(CC(F)F)c5n4)ccn3n2)[C@H](F)C1` [Compound 373, 5-(3-(2,2-Difluoroethyl)-2-methyl-3H-imidazo[4,5-b]pyridin-5-yl)-N^2-((3R,4S)-1-ethyl-3-fluoropiperidin-4-yl)-N^4-methylpyrrolo[2,1-f][1,2,4]triazine-2,4-diamine], the IC50 is 3.8 nM.
Take `CNc1nc(N[C@@H]2CCN(CCF)C[C@@H]2F)nn2ccc(-c3ccc4nc(C)n(CC(F)F)c4n3)c12` [Compound 374, 5-(3-(2,2-Difluoroethyl)-2-methyl-3H-imidazo[4,5-b]pyridin-5-yl)-N^2-((3S,4R)-3-fluoro-1-(2-fluoroethyl)piperidin-4-yl)-N^4-methylpyrrolo[2,1-f][1,2,4]triazine-2,4-diamine]: the IC50 was 2.2 nM.
Next, `CNc1nc(N[C@H]2CCN(CCF)C[C@H]2F)nn2ccc(-c3ccc4nc(C)n(CC(F)F)c4n3)c12` [Compound 375, 5-(3-(2,2-Difluoroethyl)-2-methyl-3H-imidazo[4,5-b]pyridin-5-yl)-N^2-((3R,4S)-3-fluoro-1-(2-fluoroethyl)piperidin-4-yl)-N^4-methylpyrrolo[2,1-f][1,2,4]triazine-2,4-diamine]: 0.6 nM.
In the case of `CNc1nc(N[C@@H]2CCN(C3CC3)C[C@@H]2F)nn2ccc(-c3ccc4nc(C)n(CC(F)F)c4n3)c12` [Compound 377, N^2-((3S,4R)-1-Cyclopropyl-3-fluoropiperidin-4-yl)-5-(3-(2,2-difluoroethyl)-2-methyl-3H-imidazo[4,5-b]pyridin-5-yl)-N^4-methylpyrrolo[2,1-f][1,2,4]triazine-2,4-diamine], the IC50 was 3.6 nM.
As for `CNc1nc(N[C@H]2CCN(C3CC3)C[C@H]2F)nn2ccc(-c3ccc4nc(C)n(CC(F)F)c4n3)c12` [Compound 378, N^2-((3R,4S)-1-Cyclopropyl-3-fluoropiperidin-4-yl)-5-(3-(2,2-difluoroethyl)-2-methyl-3H-imidazo[4,5-b]pyridin-5-yl)-N^4-methylpyrrolo[2,1-f][1,2,4]triazine-2,4-diamine], the concentration for half-maximal inhibition (IC50) came out at 4.1 nM.
In the case of `CNc1nc(N[C@@H]2CCN(C3CC(F)(F)C3)C[C@@H]2F)nn2ccc(-c3ccc4nc(C)n(CC(F)F)c4n3)c12` [Compound 380, N^2-((3S,4R)-1-(3,3-Difluorocyclobutyl)-3-fluoropiperidin-4-yl)-5-(3-(2,2-difluoroethyl)-2-methyl-3H-imidazo[4,5-b]pyridin-5-yl)-N^4-methylpyrrolo[2,1-f][1,2,4]triazine-2,4-diamine], the IC50 was found to be 3.2 nM.
As to `CNc1nc(N[C@H]2CCN(C3CC(F)(F)C3)C[C@H]2F)nn2ccc(-c3ccc4nc(C)n(CC(F)F)c4n3)c12` [Compound 381, N^2-((3R,4S)-1-(3,3-Difluorocyclobutyl)-3-fluoropiperidin-4-yl)-5-(3-(2,2-difluoroethyl)-2-methyl-3H-imidazo[4,5-b]pyridin-5-yl)-N^4-methylpyrrolo[2,1-f][1,2,4]triazine-2,4-diamine], the IC50 was 2.2 nM.
As for `[2H]C([2H])([2H])Nc1nc(N[C@@H]2CCN(C)CC2(F)F)nn2ccc(-c3ccc4nc(C)n(CC(F)F)c4n3)c12` [Compound 382, (R)—N^2-(3,3-Difluoro-1-methylpiperidin-4-yl)-5-(3-(2,2-difluoroethyl)-2-methyl-3H-imidazo[4,5-b]pyridin-5-yl)-N^4-(methyl-d3)pyrrolo[2,1-f][1,2,4]triazine-2,4-diamine], the IC50 was 3.3 nM.
For the compound `CCN1CC[C@@H](Nc2nc(NC)c3c(-c4ccc5nc(C)n(CC(F)F)c5n4)ccn3n2)C(F)(F)C1` [Compound 383, (R)-5-(3-(2,2-Difluoroethyl)-2-methyl-3H-imidazo[4,5-b]pyridin-5-yl)-N^2-(1-ethyl-3,3-difluoropiperidin-4-yl)-N^4-methylpyrrolo[2,1-f][1,2,4]triazine-2,4-diamine], the IC50 is 3.5 nM.
Turning to `CCN1CC[C@H](Nc2nc(NC)c3c(-c4ccc5nc(C)n(CC(F)F)c5n4)ccn3n2)C(F)(F)C1` [Compound 384, (S)-5-(3-(2,2-Difluoroethyl)-2-methyl-3H-imidazo[4,5-b]pyridin-5-yl)-N^2-(1-ethyl-3,3-difluoropiperidin-4-yl)-N^4-methylpyrrolo[2,1-f][1,2,4]triazine-2,4-diamine], the IC50 was determined as 2 nM.
